{"source": "patent US6511666B1", "about": "“Diagnostics and treatments of periodontal disease” (priority 1995, dated 2003)", "key": {"[1]": {"target": "T1, 45 kDa Arg-specific proteinase (Porphyromonas gingivalis, UniProt P28784)", "T1 construct": "made in house; host or cells: native protein purified from sonicate of P. gingivalis W50 cells (Q-sepharose, Superose 12, Arg-sepharose 200 mM arginine eluant, Mono Q)", "T1 sequence (P28784 228-719)": "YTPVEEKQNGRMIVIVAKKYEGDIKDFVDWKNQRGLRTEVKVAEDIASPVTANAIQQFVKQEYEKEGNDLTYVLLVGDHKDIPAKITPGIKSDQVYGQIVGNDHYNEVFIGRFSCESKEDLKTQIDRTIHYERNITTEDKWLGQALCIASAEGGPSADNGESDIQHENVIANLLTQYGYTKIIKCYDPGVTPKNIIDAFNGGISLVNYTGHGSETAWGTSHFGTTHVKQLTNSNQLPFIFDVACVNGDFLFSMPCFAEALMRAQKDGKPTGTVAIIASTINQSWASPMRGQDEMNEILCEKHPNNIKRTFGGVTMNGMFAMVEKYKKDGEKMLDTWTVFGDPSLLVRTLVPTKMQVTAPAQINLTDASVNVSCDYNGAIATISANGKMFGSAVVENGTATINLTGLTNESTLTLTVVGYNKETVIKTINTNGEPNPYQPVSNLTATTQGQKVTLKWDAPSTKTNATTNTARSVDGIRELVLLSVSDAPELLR", "experiment": "biochemical", "format": "biochemical, P. gingivalis W50", "conditions": "for activity at 100 µM / activity at 1000 µM / activity at 10000 µM: read-out: Activity (%) of the 45 kDa Arg-specific proteinase"}, "[2]": {"target": "48 kDa Lys-specific proteinase (PrtK48) (Porphyromonas gingivalis, UniProt Q51817)", "sequence (Q51817 229-680 limits assumed)": "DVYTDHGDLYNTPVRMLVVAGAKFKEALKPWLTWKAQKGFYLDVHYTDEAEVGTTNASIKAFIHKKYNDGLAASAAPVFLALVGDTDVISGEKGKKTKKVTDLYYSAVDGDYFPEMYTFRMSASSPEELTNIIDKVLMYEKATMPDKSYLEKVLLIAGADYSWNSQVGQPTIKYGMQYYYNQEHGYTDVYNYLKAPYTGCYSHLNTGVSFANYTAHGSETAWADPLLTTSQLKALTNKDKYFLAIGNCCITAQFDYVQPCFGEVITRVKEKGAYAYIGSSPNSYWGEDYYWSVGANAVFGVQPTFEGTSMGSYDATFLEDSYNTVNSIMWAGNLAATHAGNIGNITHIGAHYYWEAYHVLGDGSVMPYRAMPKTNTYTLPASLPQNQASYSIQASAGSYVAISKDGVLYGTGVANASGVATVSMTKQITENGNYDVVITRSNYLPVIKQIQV", "format": "biochemical, P. gingivalis W50"}, "[3]": {"target": "PrtR45, 45 kDa Arg-specific proteinase (Porphyromonas gingivalis W50)", "sequence (B2RM93 225-247)": "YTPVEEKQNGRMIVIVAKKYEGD", "experiment": "cell-based or functional assay"}, "[4]": {"conditions": "compound 10.0 mM, incubation also contained 1.0 mM 2-mercaptoethanol"}, "[5]": {"conditions": "compound 1.0 mM, incubation also contained 1.0 mM 2-mercaptoethanol"}}, "data": [{"compound": "CC(=O)N[C@@H](CC(C)C)C(=O)N[C@@H](CC(C)C)C(=O)N[C@H](C=O)CCCNC(=N)N", "note": "[Leupeptin]", "values": [{"measurement": "Effect on the Arg-specific 45 kDa enzyme (in words)", "setting": "[1]", "value": "inhibited"}, {"measurement": "activity at 100 µM", "setting": "[1]", "value": 0, "unit": "%"}, {"measurement": "Effect on the Lys-specific enzyme (in words)", "setting": "[2]", "value": "not inhibited"}]}, {"compound": "c1cnc2c(c1)ccc1cccnc12", "note": "[o-phenanthroline]", "values": [{"measurement": "Activity (%) of the 45 kDa Arg-specific proteinase", "setting": "[1]; [4]", "value": 100, "unit": "%"}]}, {"compound": "Leupeptin (peptide)", "values": [{"measurement": "Activity (%) (amidolytic activity, leupeptin at 0.1 mM)", "setting": "[3]", "value": 0, "unit": "%"}]}, {"compound": "NCCc1ccc(S(=O)(=O)F)cc1", "note": "[AEBSF, [4-(2-aminoethyl)-benzenesulfonylfluoride]]", "values": [{"measurement": "Effect on the Arg-specific 45 kDa enzyme (in words)", "setting": "[1]", "value": "not inhibited"}, {"measurement": "Activity (%) of the 45 kDa Arg-specific proteinase", "setting": "[1]; [5]", "value": 93, "unit": "%"}, {"measurement": "Activity (%) of the 45 kDa Arg-specific proteinase", "setting": "[1]; [4]", "value": 80, "unit": "%"}]}, {"compound": "O[C@H](CS)[C@H](O)CS", "note": "(racemic) [Dithiothreitol]", "values": [{"measurement": "activity at 1000 µM", "setting": "[1]", "value": 109, "unit": "%"}, {"measurement": "activity at 10000 µM", "setting": "[1]", "value": 174, "unit": "%"}]}, {"compound": "O=S(=O)(F)Cc1ccccc1", "note": "[PMSF, phenylmethyl sulfonyl fluoride]", "values": [{"measurement": "Effect on the Arg-specific 45 kDa enzyme (in words)", "setting": "[1]", "value": "not inhibited"}, {"measurement": "Activity (%) of the 45 kDa Arg-specific proteinase", "setting": "[1]; [4]", "value": 90, "unit": "%"}]}, {"compound": "O=C(O)c1cc[c]([Hg][Cl])cc1", "note": "[PCMB, p-chloromercuribenzoic acid]", "values": [{"measurement": "Activity (%) of the 45 kDa Arg-specific proteinase", "setting": "[1]; [5]", "value": 100, "unit": "%"}, {"measurement": "Activity (%) of the 45 kDa Arg-specific proteinase", "setting": "[1]; [4]", "value": 14, "unit": "%"}]}, {"compound": "N[C@@H](CS)C(=O)O", "note": "[L-cysteine]", "values": [{"measurement": "Effect on the Arg-specific 45 kDa enzyme (in words)", "setting": "[1]", "value": "activated"}, {"measurement": "activity at 100 µM", "setting": "[1]", "value": 183, "unit": "%"}, {"measurement": "activity at 1000 µM", "setting": "[1]", "value": 320, "unit": "%"}, {"measurement": "activity at 10000 µM", "setting": "[1]", "value": 487, "unit": "%"}]}, {"compound": "OCCS", "note": "[2-mercaptoethanol]", "values": [{"measurement": "Activity (%) of the 45 kDa Arg-specific proteinase", "setting": "[1]; compound 1.0 mM", "value": 100, "unit": "%"}, {"measurement": "Activity (%) of the 45 kDa Arg-specific proteinase", "setting": "[1]; compound 10.0 mM", "value": 158, "unit": "%"}, {"measurement": "Activity (%) of the 45 kDa Arg-specific proteinase", "setting": "[1]; compound 50.0 mM", "value": 189, "unit": "%"}]}, {"compound": "O=C(O)CI", "note": "[Iodoacetic acid]", "values": [{"measurement": "activity at 1000 µM", "setting": "[1]", "value": 82, "unit": "%"}, {"measurement": "activity at 10000 µM", "setting": "[1]", "value": 19, "unit": "%"}]}, {"compound": "O=C(O)CN(CCN(CC(=O)O)CC(=O)O)CC(=O)O", "note": "[EDTA]", "values": [{"measurement": "Effect on the Arg-specific 45 kDa enzyme (in words)", "setting": "[1]", "value": "inhibited"}, {"measurement": "Activity (%) of the 45 kDa Arg-specific proteinase", "setting": "[1]; EDTA +Ca2+ 50.0 mM, incubation also contained 1.0 mM 2-mercaptoethanol", "value": 97, "unit": "%"}, {"measurement": "Activity (%) of the 45 kDa Arg-specific proteinase", "setting": "[1]; [5]", "value": 100, "unit": "%"}, {"measurement": "Activity (%) of the 45 kDa Arg-specific proteinase", "setting": "[1]; [4]", "value": 4, "unit": "%"}, {"measurement": "Activity (%) of the 45 kDa Arg-specific proteinase", "setting": "[1]; compound 50.0 mM, incubation also contained 1.0 mM 2-mercaptoethanol", "value": 0, "unit": "%"}, {"measurement": "Effect on the Lys-specific enzyme (in words)", "setting": "[2]", "value": "not inhibited"}]}]}
